The record followed here is PMC9785471, “Exploring Cryptococcus neoformans CYP51 and Its Cognate Reductase as a Drug Target” (Journal of Fungi, 2022).

The test deals with T1, CnCYP51 (lanosterol 14α-demethylase, CnCYP51-6×His) (Cryptococcus neoformans, UniProt J9VHT4).
T1 construct: gene CNAG_00040; full-length, C-terminal hexahistidine-tagged, codon-optimised, expressed in S. cerevisiae
As to the kind of experiment: Type II absorbance difference spectral titration of purified CYP51, Hill fit. The format is binding.

T1 sequence (J9VHT4 entry or part of it): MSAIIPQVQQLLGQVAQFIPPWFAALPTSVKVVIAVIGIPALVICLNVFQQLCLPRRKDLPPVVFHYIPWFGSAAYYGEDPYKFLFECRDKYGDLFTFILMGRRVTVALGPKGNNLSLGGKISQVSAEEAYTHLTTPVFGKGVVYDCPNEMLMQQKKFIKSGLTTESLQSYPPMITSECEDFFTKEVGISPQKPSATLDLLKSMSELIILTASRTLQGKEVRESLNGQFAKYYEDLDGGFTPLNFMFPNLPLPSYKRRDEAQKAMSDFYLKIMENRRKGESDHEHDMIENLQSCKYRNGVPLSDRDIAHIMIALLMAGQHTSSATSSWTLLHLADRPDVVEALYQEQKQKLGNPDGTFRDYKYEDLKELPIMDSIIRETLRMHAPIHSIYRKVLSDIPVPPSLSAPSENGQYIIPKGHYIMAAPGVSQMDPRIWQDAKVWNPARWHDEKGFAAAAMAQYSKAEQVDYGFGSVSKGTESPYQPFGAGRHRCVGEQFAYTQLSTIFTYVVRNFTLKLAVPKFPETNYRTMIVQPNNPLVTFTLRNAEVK

The term Kd denotes the free concentration of one partner at which half of the binding sites on the other are occupied at equilibrium, for simple one-to-one binding. Lower therefore signals a tighter complex. Take `CC[C@@H]([C@H](C)O)n1ncn(-c2ccc(N3CCN(c4ccc(OC[C@@H]5CO[C@@](Cn6cncn6)(c6ccc(F)cc6F)C5)cc4)CC3)cc2)c1=O` [PCZ, Posaconazole]: binding was characterised by a dissociation constant (Kd) of 200 ± 10 nM.
Next, `C[C@@H](c1ncncc1F)[C@](O)(Cn1cncn1)c1ccc(F)cc1F` [VCZ, Voriconazole]: 390 ± 13 nM.
